Article PMC6582051, “Identification of a natural ligand of the hazel allergen Cor a 1” (Scientific Reports, 2019)

Target: T1, Cor a 1.0401 (Corylus avellana, UniProt Q9SWR4)
T1 construct: gene CORA1.0401; tagless full-length recombinant, 160 aa, E. coli (pET11a, codon-optimised synthetic gene), 15N or 13C/15N labelled
T1 sequence (Q9SWR4 2-161 limits assumed): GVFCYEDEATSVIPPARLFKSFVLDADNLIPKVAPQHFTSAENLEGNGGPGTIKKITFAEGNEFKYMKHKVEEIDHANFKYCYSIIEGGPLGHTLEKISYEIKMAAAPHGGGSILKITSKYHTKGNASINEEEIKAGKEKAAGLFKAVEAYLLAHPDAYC
Test: 1H, […] HSQC NMR titration
Type: binding
Settings: 298 K, 60 uM protein, up to equimolar ligand, 2.2% DMSO; hydrophobic pocket

## O=c1c(O)c(-c2ccc(O)c(O)c2)oc2cc(O)cc(O)c12 [quercetin]
  1H,15N HSQC NMR titration: amino acids that were strongest affected by quercetin binding are highlighted in red
